Test results: PMC12251544 (2025)

Tested on: FAM-SpA1-1/SpA1-2 (T-2 toxin split aptamer) (DNA, aptamer) CAGCTCAGAAGCTTGATCCTG/TATATCAAGCATAGAGGTG
Details: 5 mM K+, 100 mM Na+, 1 mM Mg2+; 50 mM Tris-HCl, 1% methanol, pH 7.4, room temperature; sensor selectivity; concentration tested not stated

Row | Compound | binding
1 | C[C@@H]1Cc2c(Cl)cc(C(=O)N[C@@H](Cc3ccccc3)C(=O)O)c(O)c2C(=O)O1 | no
2 | CCCC[C@@H](C)[C@@H](OC(=O)C[C@@H](CC(=O)O)C(=O)O)[C@H](C[C@@H](C)C[C@H](O)CCCC[C@@H](O)C[C@H](O)[C@H](C)N)OC(=O)C[C@@H](CC(=O)O)C(=O)O | no
3 | C[C@H]1CCCC(=O)CCC/C=C/c2cc(O)cc(O)c2C(=O)O1 | no
